Measurements reported in patent US20080200489A1, “Combination of Organic Compounds” (priority 2005, published 2008).

Assays:
[1] = test system: NBMCs; assay: Loss of survival of NBMCs; assay type: cell-based; settings: for loss of survival of NBMCs: 48 hours, mean of 2 samples
Text: Primary CML-BC cells and NBMCs: Leukemia cells from the peripheral blood and/or bone marrow of 10 patients who had met the clinical criteria of imatinib-resistant Ph chromosome-positive CML-BC (Imatinib-resistant Philadelphia chromosome-positive chromic myeloid leukaemia-blast crisis) are harvested and purified. Additionally, NBMCs are harvested and purified. Informed consents are signed by all patients to allow use of their cells for these experiments, as part of a clinical protocol approved by the University of South Florida Institutional Review Board (IRB).
Assessment of percentage of non-viable cells: Cells are stained with trypan blue (Sigma, St Louis, Mo.).

[2] = test system: BaF3/Bcr-Abl cells; assay: Apoptosis of BaF3 cells expressing unmutated Bcr-Abl; assay type: cell-based, mouse; settings: agent alone
Text: (§1) Cell lines and cell culture: Bcr-Abl-expressing, CML LAMA-84 and K562 cells are obtained from American Tissue Culture Collection (Manassas, Va.) and maintained in culture in RPMI medium containing 10% fetal bovine serum and passaged twice a week. […] Following these treatments, cells or cell pellets are washed free of the drug(s) prior to the performance of the studies.
(§2) Site-directed mutagenesis and nucleofection: Three p210 Bcr-Abl constructs are used in the current studies. The p210 Bcr-Abl WT and p210 Bcr-Abl (T315I) constructs are generated. […] For nucleofection of the p210 Bcr-Abl constructs into BaF3 cells, 5 million BaF3 cells in 100 μL Nucleofector solution V (Amaxa, Gaithersburg, Md.) are mixed with 5 μg p210 Bcr-Abl WT, p210 Bcr-Abl (T315I), or p210 Bcr-Abl (E255K) in a cuvette and nucleofected using program G-16. […] Stably expressing cells are then further selected by removal of IL-3. After confirmation of Bcr-Abl expression by immunoblot analysis, cells are used for the studies described herein.
(§3) Apoptosis assessment by annexin V staining: Untreated and drug-treated cells are stained with annexin V and PI, and the percentage of apoptotic cells is determined by flow cytometry.

[3] = test system: K562 cells; assay: Apoptosis assessment by annexin V staining, K562 cells; assay type: cell-based, human; settings: for apoptosis of K562 cells: agent alone
Description: (§4) Cell lines and cell culture: Bcr-Abl-expressing, CML LAMA-84 and K562 cells are obtained from American Tissue Culture Collection (Manassas, Va.) and maintained in culture in RPMI medium containing 10% fetal bovine serum and passaged twice a week. Mouse pro-B BaF3 cells are cultured in complete RPMI-1640 media supplemented with 10% WEHI medium as the source of IL-3. For the studies described herein, logarithmically growing cells are exposed to the designated concentrations of Compound (II) and/or Compound (V). Following these treatments, cells or cell pellets are washed free of the drug(s) prior to the performance of the studies. Apoptosis assessment by annexin V staining: Untreated and drug-treated cells are stained with annexin V and PI, and the percentage of apoptotic cells is determined by flow cytometry. Analysis of synergism between Compound (II) and Compound (V) in inducing apoptosis of K562 and LAMA-84 cells is performed by Median Dose-Effect analysis of Chou and Talalay using the commercially-available software (Calcusyn; Biosoft, Ferguson, Mo.).

[4] = test system: BaF3/Bcr-AblT315I cells; assay: Apoptosis of BaF3 cells expressing Bcr-AblT315I; assay type: cell-based, mouse
Description: Mouse pro-B BaF3 cells are cultured in complete RPMI-1640 media supplemented with 10% WEHI medium as the source of IL-3. […] Following these treatments, cells or cell pellets are washed free of the drug(s) prior to the performance of the studies.
Site-directed mutagenesis and nucleofection: Three p210 Bcr-Abl constructs are used in the current studies. The p210 Bcr-Abl WT and p210 Bcr-Abl (T315I) constructs are generated. […] For nucleofection of the p210 Bcr-Abl constructs into BaF3 cells, 5 million BaF3 cells in 100 μL Nucleofector solution V (Amaxa, Gaithersburg, Md.) are mixed with 5 μg p210 Bcr-Abl WT, p210 Bcr-Abl (T315I), or p210 Bcr-Abl (E255K) in a cuvette and nucleofected using program G-16. Following nucleofection, the cells are incubated at a concentration of 1×10^6 cells/mL in complete RPMI-1640 media supplemented with 10% WEHI medium as the source of IL-3, overnight, to recover. Stable transfectants of BaF3 cells expressing the WT or mutant form of Bcr-Abl (i.e., T315I or E255K) are maintained in RPMI 1640 supplemented with 10% serum, 1.0 U/mL penicillin, 1 μg/mL streptomycin and 0.75 mg/mL G418. Stably expressing cells are then further selected by removal of IL-3. After confirmation of Bcr-Abl expression by immunoblot analysis, cells are used for the studies described herein.

[5] = test system: primary, imatinib-resistant CML cells; assay: Loss of viability / apoptosis of primary imatinib-resistant CML-BC cells; assay type: cell-based, human; settings: for sensitivity of sample 7: Compound (II) at lower concentrations; for apoptosis of cells: sample no. 9 (Bcr-AblT315I)
Description: Primary CML-BC cells and NBMCs: […] Additionally, NBMCs are harvested and purified. Informed consents are signed by all patients to allow use of their cells for these experiments, as part of a clinical protocol approved by the University of South Florida Institutional Review Board (IRB). Sequencing of Bcr-Abl in CML-BC cells: […] Total RNA (5 μg) is reverse transcribed with a first-strand cDNA synthesis kit (Invitrogen). Reverse transcribed cDNAs are used in polymerase chain reaction (PCR) amplifications to amplify a fragment of Bcr-Abl that included the Bcr junction region and the c-Abl kinase region. The amplified sequences are agarose gel-purified and cloned into pCR4-TOPO plasmid. The resulting plasmids are transformed into Escherichia coli Mach1 cells (Invitrogen) overnight at 37° C. Ten colonies for each sample are checked by colony PCR and subcultured for plasmid isolation. Isolated plasmids are sequence verified with T3 and T7 primers for c-Abl kinase domain mutations. Assessment of percentage of non-viable cells: Cells are stained with trypan blue (Sigma, St Louis, Mo.). […] Apoptosis assessment by annexin V staining: Untreated and drug-treated cells are stained with annexin V and PI, and the percentage of apoptotic cells is determined by flow cytometry. Analysis of synergism between Compound (II) and Compound (V) in inducing apoptosis of K562 and LAMA-84 cells is performed by Median Dose-Effect analysis of Chou and Talalay using the commercially-available software (Calcusyn; Biosoft, Ferguson, Mo.).

[6] = test system: LAMA-84 cells; assay: Apoptosis assessment by annexin V staining, LAMA-84 cells; assay type: cell-based, human; settings: for apoptosis of LAMA-84 cells: agent alone
Description: as §4

[7] = test system: Bcr-AblE255K; assay: Western analyses of Bcr-Abl levels, BaF3/Bcr-AblE255K cells; assay type: cell-based, mouse
[8] = test system: Bcr-Abl; assay: Western/immunoblot analyses of Bcr-Abl and downstream signaling proteins, LAMA-84 cells; assay type: cell-based, human; settings: agent alone
Description: as §1
(§5) Western analyses of proteins: Western analyses are performed using specific antisera or monoclonal antibodies according to previously reported protocols, and the horizontal scanning densitometry is performed on Western blots.
Immunoprecipitation of Bcr-Abl and immunoblot analyses: Following the designated drug treatments, cells are lysed in lysis buffer (20 mM Tris [pH 8], […] sodium chloride, 1% NP40, 0.1 M sodium fluoride, 1 mM PMSF, 1 mM sodium orthovanadate, 2.5 μg/mL leupeptin, 5 μg/mL aprotinin) for 30 minutes on ice, and the nuclear and cellular debris is cleared by centrifugation. Cell lysates (200 μg) are incubated with the Abl-specific monoclonal antibody for 1 hour at 4° C. To this, washed Protein G agarose beads are added and incubated overnight at 4° C. The immunoprecipitates are washed 3 times in the lysis buffer, and proteins are eluted with the SDS sample loading buffer prior to the immunoblot analyses with specific antibodies against anti-Abl or antiphosphotyrosine antibody.

[9] = test system: BaF3/Bcr-AblE255K cells; assay: Apoptosis of BaF3 cells expressing Bcr-AblE255K; assay type: cell-based, mouse
Text: as §1, §2, §3

[10] = test system: Bcr-AblT315I; assay: Western analyses of Bcr-Abl levels, BaF3/Bcr-AblT315I cells; assay type: cell-based, mouse
[11] = test system: Bcr-Abl; assay: Western blot analyses of total cell lysates of primary CML cells; assay type: cell-based, human; settings: sample 9; 1000 nM alone
Description: Additionally, NBMCs are harvested and purified. Informed consents are signed by all patients to allow use of their cells for these experiments, as part of a clinical protocol approved by the University of South Florida Institutional Review Board (IRB).
as §5

[12] = test system: Bcr-Abl; assay: Western analyses of Bcr-Abl levels, BaF3/Bcr-Abl cells; assay type: cell-based, mouse
[13] = any of the levels tested, alone

Structure (SMILES): Cc1cn(-c2cc(NC(=O)c3ccc(C)c(Nc4nccc(-c5cccnc5)n4)c3)cc(C(F)(F)F)c2)cn1 [Compound (II), 4-methyl-3-[[4-(3-pyridinyl)-2-pyrimidinyl]amino]-N-[5-(4-methyl-1H-imidazol-1-yl)-3-(trifluoromethyl)phenyl]benzamide]
- effect against NBMCs ([1]; up to 1.0 μM): no effect
- apoptosis of BaF3/Bcr-Abl cells [2]: dose-dependent manner
- potency in inducing apoptosis relative to imatinib ([3]; K562 cells): approximately 10 fold
- apoptosis of K562 cells [3]: dose-dependent manner
- apoptosis of BaF3/Bcr-AblT315I cells ([4]; levels as high as 2,000 nM): resistant
- sensitivity of sample 7 [5]: relatively resistant
- apoptosis of cells ([5]; 2.0 μM): ineffective
- loss of cell viability ([5]; samples 1 to 7, agent alone): dose dependent
- loss of cell viability ([5]; samples 8, 9, and 10 with Bcr-AblT315I mutation, Compound (II) alone): did not augment
- potency in inducing apoptosis relative to imatinib ([6]; LAMA-84 cells): approximately 10 fold
- apoptosis of LAMA-84 cells [6]: dose-dependent manner
- levels of p-CrkL ([7]; agent alone): did not affect
- levels of Bcr-Abl [7, 13]: did not lower
- expressions of c-Myc and Bcl-xL [8]: lowered
- levels of Bcr-Abl [8]: without affecting
- levels of p-AKT [8]: inhibited
- levels of p-CrkL [8]: inhibited
- levels of p-STAT5 [8]: attenuated
- levels of tyrosine phosphorylated Bcr-Abl [8]: inhibited
- p27 levels [8]: induction
- apoptosis of BaF3/Bcr-AblE255K cells ([9]; 100 nM): ineffective
- apoptosis of BaF3/Bcr-AblE255K cells ([9]; 200 nM): 26.0%
- apoptosis of BaF3/Bcr-AblE255K cells ([9]; 500 nM): 43.0%
- levels of p-CrkL ([10]; agent alone): did not affect
- levels of Bcr-Abl [10, 13]: did not lower
- levels of Bcr-Abl, p-CrkL, and p-STAT5 [11]: little effect
- levels of p-CrkL ([12]; agent alone): did not affect
- levels of Bcr-Abl [12, 13]: did not lower

Structure (SMILES): Cc1[nH]c2ccccc2c1CCNCc1ccc(/C=C/C(=O)NO)cc1 [Compound (V), N-hydroxy-3-[4-[[[2-(2-methyl-1H-indol-3-yl)-ethyl]-amino]methyl]phenyl]-2E-2-propenamide]
- loss of survival of NBMCs ([1]; 20 nM): 13.1%
- loss of survival of NBMCs ([1]; 50 nM): 15.9%
- apoptosis of K562 cells [3]: dose-dependent manner
- apoptosis of BaF3/Bcr-Abl T315I cells ([4]; 50 nM, 48 hours): approximately 30%
- sensitivity of BaF3/Bcr-AblT315I cells to induced apoptosis ([4]; agent alone): as sensitive as BaF3/Bcr-Abl cells
- apoptosis of BaF3/Bcr-Abl T315I cells ([4]; levels lower than 50 nM): less effective
- sensitivity of sample 7 [5]: sensitive
- apoptosis of cells ([5]; 50 nM alone): 42.0%
- loss of cell viability ([5]; samples 1 to 7, agent alone): dose dependent
- cell viability ([5]; samples 8, 9, and 10 with Bcr-AblT315I mutation, alone, 48 hours, dose-dependent): markedly inhibited
- apoptosis of LAMA-84 cells [6]: dose-dependent manner
- Bcr-Abl levels ([7]; 50 nM, 24 hours): lowered
- Bcr-Abl levels ([10]; 50 nM, 24 hours): lowered
- Bcr-Abl levels ([12]; 50 nM, 24 hours): lowered
